Assay results reported in the NIST ThermoML archive (doi:10.1016/j.fluid.2014.12.033).
Numbers after ± are expanded uncertainties.

Conditions: Liquid

Row | Normal boiling temperature (DSC) | Normal boiling temperature (Distillation) | SMILES
1 | 260 ± 16 °C |  | CCCCC(CC)COP(=O)(O)OCC(CC)CCCC (centres undefined) [bis(2-ethylhexyl) hydrogen phosphate]
2 |  | 82 ± 1 °C | C1CCCCC1 [cyclohexane]
3 |  | 193 ± 1 °C | CCCCCCCCO [octan-1-ol]
4 |  | 62 ± 1 °C | ClC(Cl)Cl [trichloromethane]
